Results on 15 molecules are retold here after ChEMBL document CHEMBL1132903 (Bioorg Med Chem Lett, 2000).

For experiment [1], the target named is T1, Neutrophil elastase (Homo sapiens, UniProt P08246).
T1 sequence (P08246 whole entry): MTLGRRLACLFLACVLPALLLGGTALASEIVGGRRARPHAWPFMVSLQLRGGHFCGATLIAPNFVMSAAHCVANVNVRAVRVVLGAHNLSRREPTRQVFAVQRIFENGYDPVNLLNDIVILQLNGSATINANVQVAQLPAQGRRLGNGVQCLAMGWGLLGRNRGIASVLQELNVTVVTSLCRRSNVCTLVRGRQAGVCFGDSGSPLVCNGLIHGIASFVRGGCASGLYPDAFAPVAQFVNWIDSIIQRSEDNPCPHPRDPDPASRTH
Description: Competitive inhibition constant against Human neutrophil elastase using the reporter substrate MeO-AAPV-pNa.

The target in experiment [2] is Pancreatic elastase (Sus scrofa) (UniProt P08419+P00772). Description: Inhibition constant for uncompetitive inhibition of Suc-AAPA and Pancreatic elastase. Type of experiment: protein assay.
Sequence of Pancreatic elastase (Sus scrofa) (P00772 whole entry, looked up, one chain of several): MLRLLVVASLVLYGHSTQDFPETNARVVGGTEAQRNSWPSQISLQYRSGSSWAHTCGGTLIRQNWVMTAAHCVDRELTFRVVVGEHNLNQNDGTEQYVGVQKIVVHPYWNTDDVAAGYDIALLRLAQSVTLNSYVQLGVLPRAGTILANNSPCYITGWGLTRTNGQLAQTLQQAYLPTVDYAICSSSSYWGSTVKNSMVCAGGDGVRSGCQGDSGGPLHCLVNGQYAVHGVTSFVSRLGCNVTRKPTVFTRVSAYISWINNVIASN
Experiment [3] has as its target T2, Chymotrypsin-like elastase family member 2A (Sus scrofa) (UniProt P08419).
T2 sequence (whole entry): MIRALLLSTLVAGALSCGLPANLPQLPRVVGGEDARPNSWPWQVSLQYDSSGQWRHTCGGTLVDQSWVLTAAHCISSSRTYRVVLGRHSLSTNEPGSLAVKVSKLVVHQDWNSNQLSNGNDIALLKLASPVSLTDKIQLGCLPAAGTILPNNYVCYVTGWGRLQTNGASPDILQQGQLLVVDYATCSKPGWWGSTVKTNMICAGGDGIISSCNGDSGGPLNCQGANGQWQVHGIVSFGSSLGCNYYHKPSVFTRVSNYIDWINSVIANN
Description: Peptide was tested for inhibition constant for competitive inhibition using Suc-AAPA-pNa and Pancreatic elastase

In experiment [4] the target is T3, Chymotrypsinogen A (Bos taurus, UniProt P00766). Description: Competitive inhibition constant against Chymotrypsinogen using the reporter substrate Suc-AAPA-pNa.
For experiment [5], the target named is T4, Serine protease 1 (Homo sapiens, UniProt P07477).
T4 sequence (P07477 whole entry): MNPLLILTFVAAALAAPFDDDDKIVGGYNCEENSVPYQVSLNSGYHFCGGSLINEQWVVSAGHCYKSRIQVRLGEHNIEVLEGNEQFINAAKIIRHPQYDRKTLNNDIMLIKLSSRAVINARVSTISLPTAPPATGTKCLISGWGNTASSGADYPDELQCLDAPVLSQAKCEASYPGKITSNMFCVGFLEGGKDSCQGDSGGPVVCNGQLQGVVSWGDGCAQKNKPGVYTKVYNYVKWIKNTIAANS
Experiment [6] has as its target T5, Chymotrypsin-like elastase family member 2A (Sus scrofa, UniProt P08419).
T5 sequence (P08419 whole entry): T2 sequence (whole entry)
Kind of experiment: Peptide was tested for inhibition constant for uncompetitive inhibition using Suc-AAPA and Pancreatic elastase.

The target in experiment [7] is T1, Neutrophil elastase. Kind of experiment: Competitive inhibition constant against Human neutrophil elastase using the reporter substrate MeO-AAPV-pNa; NI means no inhibition.
The target in experiment [8] is T3, Chymotrypsinogen A. Kind of experiment: Competitive inhibition constant against Chymotrypsinogen using the reporter substrate Suc-AAPA-pNa; No inhibition.
The target of experiment [9] is T4, Serine protease 1. Kind of experiment: Competitive inhibition constant against trypsin using the reporter substrate Ac-R-pNa.

Where a SMILES comes first, the peptide text is derived from it.

As usually defined, the Ki is a measure of affinity in units of concentration, obtained from inhibition or displacement. High values mean weaker binding, low ones tighter binding.

In turn, `CC[C@@H](C)[C@@H](NC(=O)[C@@H](C)NC(=O)[C@@H](CCC(=O)O)NC(=O)[C@@H](CC(C)C)NC(=O)[C@@H](Cc1ccccc1)NC(=O)[C@H](N)CCSC)C(=O)N1CCC[C@H]1C(=O)N[C@@H](CCSC)C(=O)N[C@@H](CO)C(=O)O` had a Ki on Neutrophil elastase [1] of 190 µM. The Ki' in [2] was 1200 µM.

Take `CC[C@@H](C)[C@@H](NC(=O)[C@@H](C)NC(=O)[C@@H](CCC(=O)O)NC(=O)[C@@H](CC(C)C)NC(C)=O)C(=O)N1CCC[C@H]1C(=O)N[C@@H](CCSC)C(=O)O`: the Ki' in experiment [2] was determined as 890 µM.

With `CC[C@@H](C)[C@@H](NC(=O)[C@@H](CC)NC(=O)[C@@H](CCC(=O)O)NC(=O)[C@@H](CC(C)C)NC(=O)[C@@H](Cc1ccccc1)NC(=O)[C@H](N)CCSC)C(=O)N1CCC[C@H]1C(=O)O`, the Ki' in experiment [2] is 220 µM.

For the molecule `CSCC[C@H](N)C(=O)N[C@@H](Cc1ccccc1)C(=O)N[C@@H](CC(C)C)C(=O)N[C@@H](C)C(=O)O` (H-MFLA-OH), the Ki' in experiment [2] was 890 µM.

On to `CC[C@@H](C)[C@@H](NC(=O)[C@@H](C)NC(=O)[C@@H](CCC(=O)O)NC(=O)[C@@H](CC(C)C)NC(=O)[C@@H](Cc1ccccc1)NC(=O)[C@H](N)CCSC)C(=O)N1CCC[C@H]1C(=O)N[C@@H](CCSC)C(=O)O`, for which, at Neutrophil elastase [1], the Ki was 270 µM. Moreover, the Ki' in experiment [2] was 440 µM; in [3] it was “No inhibition”.

For H-MFLEAIPMSIPPE-OH, on Chymotrypsinogen A [4], the affinity, expressed as Ki, was 240 µM.

For `CC[C@H](C)[C@H](NC(=O)[C@H](CO)NC(=O)[C@H](CCSC)NC(=O)[C@@H]1CCCN1C(=O)[C@@H](NC(=O)[C@H](C)NC(=O)[C@H](CCC(=O)O)NC(=O)[C@H](CC(C)C)NC(=O)[C@H](Cc1ccccc1)NC(=O)[C@@H](N)CCSC)[C@@H](C)CC)C(=O)O`, the Ki at Chymotrypsinogen A [4] is 160 µM; at Serine protease 1 [5] it was “Not Active”.

Consider `CC[C@@H](C)[C@H](NC(=O)[C@H](CO)NC(=O)[C@H](CCSC)NC(=O)[C@@H]1CCCN1C(=O)[C@H](NC(=O)[C@@H](C)NC(=O)[C@@H](CCC(=O)O)NC(=O)[C@@H](CC(C)C)NC(=O)[C@@H](Cc1ccccc1)NC(=O)[C@H](N)CCSC)[C@H](C)CC)C(=O)O`, for which the inhibitory constant (Ki) on Neutrophil elastase [1] is 27 µM. In addition, in experiment [2], the Ki' was 340 µM.

With `CC[C@H](C)[C@H](NC(=O)[C@H](C)NC(=O)[C@H](CCC(=O)O)NC(=O)[C@H](CC(C)C)NC(=O)[C@H](Cc1ccccc1)NC(=O)[C@@H](N)CCSC)C(=O)N1CCC[C@H]1C(=O)N[C@@H](CCSC)C(=O)O`, the Ki result in experiment [6] is “No inhibition”; at Chymotrypsinogen A [4], 2300 µM; at Serine protease 1 [5] it was “Not Active”.

As to `CC[C@H](C)[C@H](NC(=O)[C@H](C)NC(=O)[C@H](CCC(=O)O)NC(=O)[C@H](CC(C)C)NC(=O)[C@H](Cc1ccccc1)NC(=O)[C@@H](N)CCSC)C(=O)N1CCC[C@H]1C(=O)N[C@@H](CCSC)C(=O)N[C@@H](CO)C(=O)O`, the inhibitory constant (Ki) was 3100 µM on Chymotrypsinogen A [4] and “Not Active” on Serine protease 1 [5].

As for `CC[C@@H](C)[C@@H](NC(=O)[C@@H](C)NC(=O)[C@@H](CCC(=O)O)NC(=O)[C@@H](CC(C)C)NC(=O)[C@@H](Cc1ccccc1)NC(=O)[C@H](N)CCSC)C(=O)N1CCC[C@H]1C(=O)N[C@H](CCCCN)C(=O)O`, the Ki entry on Neutrophil elastase [7] was “Not Active”. Besides, in experiment [2], the Ki' was found to be 640 µM.

With `CC(C)C[C@H](NC(=O)[C@@H](N)Cc1ccccc1)C(=O)N[C@@H](CCC(=O)O)C(=O)O` (H-Phe-Leu-Glu-OH), the Ki' in experiment [2] was found to be 1400 µM.

In turn, `CC[C@H](C)[C@H](NC(=O)[C@H](C)NC(=O)[C@H](CCC(=O)O)NC(=O)[C@H](CC(C)C)NC(=O)[C@@H](N)Cc1ccccc1)C(=O)N1CCC[C@@H]1C(=O)N[C@H](CCSC)C(=O)O` yielded a Ki' in experiment [2] of 530 µM.

As for `CSCC[C@@H](N)C(=O)N[C@H](Cc1ccccc1)C(=O)N[C@H](CC(C)C)C(=O)N[C@H](CCC(=O)O)C(=O)O`, the Ki entry at Neutrophil elastase [7], on Chymotrypsinogen A [8] and at Serine protease 1 [5] was “Not Active” in each case. For the same molecule, the Ki' in experiment [2] is 370 µM.

With `CC[C@H](C)[C@H](NC(=O)[C@H](C)NC(=O)[C@H](CCC(=O)O)NC(=O)[C@H](CC(C)C)NC(=O)[C@H](Cc1ccccc1)NC(=O)[C@@H](N)CCSC)C(=O)N1CCC[C@H]1C(=O)N[C@@H](CCCCN)C(=O)O`, the figures for the Ki on Serine protease 1 [9] and at Chymotrypsinogen A [8] were 540 µM and “Not Active”, respectively.
